According to article PMC4821887, “Identification of chemicals that mimic transcriptional changes associated with autism, brain aging and neurodegeneration” (Nature Communications, 2016):
Structures can show the parent of a compound that is named as a salt. Where two headings read alike, the source gives them in different places.

System: mouse cortical neuron cultures

| Compound | % Dead cells (vehicle subtracted) | other results |
| --- | --- | --- |
| CCC/C(=N\OCC)C1=C(O)CC(CC(C)SCC)CC1=O (stereo not shown) [Sethoxydim] | -0.798% |  |
| CCCCC(CC)COC(=O)c1ccccc1C(=O)OCC(CC)CCCC (stereo not shown) [Diethylhexyl phthalate (DEHP)] | -0.2848% |  |
| O=C(NC(=O)c1c(F)cccc1F)Nc1ccc(OC(F)(F)C(F)OC(F)(F)F)c(Cl)c1 (stereo not shown) [Novaluron] | -1.142% |  |
| CCC(C)n1c(=O)[nH]c(C)c(Br)c1=O (stereo not shown) [Bromacil] | 5.5524% |  |
| CCCCC(CC)CN1C(=O)C2C3C=CC(C3)C2C1=O (stereo not shown) | -0.09059% |  |
| CC(C)OC(=O)Nc1cccc(Cl)c1 [Chlorpropham] |  | % Dead cells (vehicle subtracted) (mouse, 24 h, 10 µM): -1.179% |
| Cc1cc(C2CC2)nc(Nc2ccccc2)n1 [Cyprodinil] |  | % Dead cells (vehicle subtracted) (mouse, 24 h, 10 µM): -6.385% |
| CCCCOCN(C(=O)CCl)c1c(CC)cccc1CC [Butachlor] |  | % Dead cells (vehicle subtracted) (mouse, 24 h, 10 µM): 0.2625% |
| COC(=O)NS(=O)(=O)c1ccc(N)cc1 [Asulam] |  | % Dead cells (vehicle subtracted) (mouse, 24 h, 10 µM): 1.255% |
| CCOC(=O)CC(SP(=S)(OC)OC)C(=O)OCC (stereo not shown) [Malathion] | -1.492% |  |
| CN(C)C(=O)Nc1cccc(C(F)(F)F)c1 [Fluometuron] |  | % Dead cells (vehicle subtracted) (mouse, 24 h, 10 µM): 0.2278% |
| O=C(Nc1ccccc1)Nc1ccnc(Cl)c1 [Forchlorfenuron] | 0.6006% |  |
| Cc1cc(C)nc(NC(=O)NS(=O)(=O)c2ccccc2C(=O)OC2COC2)n1 [Oxasulfuron (benzoic acid)] | -0.4775% |  |
| O=C(O)CCCOc1ccc(Cl)cc1Cl | -0.3394% |  |
| CNC(=O)Oc1cccc(N=CN(C)C)c1 [Formetanate hydrochloride] | 1.887% |  |
| CNC(=S)[S-].O.O.[Na+] [Metam-sodium hydrate] | -1.491% |  |
| CC1(C)C(C(=O)OC(C#N)c2cccc(Oc3ccccc3)c2)C1(C)C (stereo not shown) [Fenpropathrin (Danitol)] | -1.601% |  |
| C=CC1(C)OC(=O)N(c2cc(Cl)cc(Cl)c2)C1=O (stereo not shown) [Vinclozolin] |  | % Dead cells (vehicle subtracted) (mouse, 24 h, 10 µM): -1.854% |
| OCCOc1ccccc1 [Phenoxyethanol [2-Phenoxyethanol]] | 4.907% |  |
| Cc1ccc(-c2c(Cl)nc(C#N)n2S(=O)(=O)N(C)C)cc1 [Cyazofamid] |  | % Dead cells (vehicle subtracted) (mouse, 24 h, 10 µM): -1.678% |
| CSc1nnc(C(C)(C)C)c(=O)n1N [Metribuzin] | -0.1172% |  |
| CCCCOC(=O)[C@@H](C)Oc1ccc(Oc2ccc(C#N)cc2F)cc1 [Cyhalofop-butyl] | 0.4476% |  |
| COc1ccc(C(=CC(=O)N2CCOCC2)c2ccc(Cl)cc2)cc1OC [Dimethomorph] |  | % Dead cells (vehicle subtracted) (mouse, 24 h, 10 µM): -1.666% |
| CCOC1Oc2ccc(OS(C)(=O)=O)cc2C1(C)C (stereo not shown) [Ethofumesate] | -0.3872% |  |
| CNC(=O)O/N=C(\SC)C(=O)N(C)C [Oxamyl] | -2.835% |  |
| CC(C)Oc1cccc(NC(=O)c2ccccc2C(F)(F)F)c1 [Flutolanil] | 9.589% |  |
| COP(=S)(OC)Oc1nc(Cl)c(Cl)cc1Cl [Chlorpyrifos-methyl] | -0.3201% |  |

| Compound | % Dead cells (vehicle subtracted) | other results |
| --- | --- | --- |
| CC1=NNC(=O)N(/N=C/c2cccnc2)C1 | -2.3223% |  |
| COC(=O)c1c(C(F)F)nc(C(F)(F)F)c(C2=NCCS2)c1CC(C)C [Thiazopyr] | 1.196% |  |
| O=C(Nc1ccccc1-c1ccc(Cl)cc1)c1cccnc1Cl [Boscalid] |  | % Dead cells (vehicle subtracted) (mouse, 24 h, 10 µM): -4.045% |
| CCOP(=S)(OCC)Oc1cc(C)nc(C(C)C)n1 [Diazinon] | 0.1738% |  |
| C=C(C)CN(CC)c1c([N+](=O)[O-])cc(C(F)(F)F)cc1[N+](=O)[O-] [Ethalfluralin] |  | % Dead cells (vehicle subtracted) (mouse, 24 h, 10 µM): 1.146% |
| Cc1c(COC(=O)[C@@H]2[C@H](/C=C(\Cl)C(F)(F)F)C2(C)C)cccc1-c1ccccc1 (racemic) [Bifenthrin] | 0.2358% |  |
| Abamectin | 4.666% |  |
| CC1(C)C(C=C(Cl)Cl)C1C(=O)OC(C#N)c1cccc(Oc2ccccc2)c1 (stereo not shown) [Cypermethrin] |  | % Dead cells (vehicle subtracted) (mouse, 24 h, 10 µM): -3.377% |
| CCOP(=S)(OCC)SCCSCC [Disulfoton] | 2.557% |  |
| CC(C)(C)[C@@H](O)[C@@H](Cc1ccc(Cl)cc1)n1cncn1 (racemic) [Paclobutrazol] |  | % Dead cells (vehicle subtracted) (mouse, 24 h, 10 µM): -2.562% |
| CCOC(=O)C(C)Oc1ccc(Oc2nc3ccc(Cl)cc3o2)cc1 (stereo not shown) [Fenoxaprop-ethyl] |  | % Dead cells (vehicle subtracted) (mouse, 24 h, 10 µM): 9.924% |
| COC(=O)c1ccc(CNS(C)(=O)=O)cc1S(=O)(=O)NC(=O)Nc1nc(OC)cc(OC)n1 [Mesosulfuron methyl] | -0.4756% |  |
| COP(=O)(OC)SCn1c(=O)oc2cc(Cl)cnc21 [Azamethiphos] | -0.5762% |  |
| CCC(C)OC(=O)N1CCCCC1CCO (stereo not shown) [Icaridin] | 2.044% |  |
| C#CC(C)(C)NC(=O)c1cc(Cl)cc(Cl)c1 [Propyzamide] | 1.57% |  |
| O=S(=O)(O)C(F)(F)C(F)(F)C(F)(F)C(F)(F)C(F)(F)C(F)(F)C(F)(F)C(F)(F)F [Perfluorooctane sulfonic acid] | 6.21% |  |
| COP(=S)(OC)Oc1ccc([N+](=O)[O-])cc1 [Parathion-methyl] | 1.486% |  |
| CCNc1nc(N)nc(Cl)n1 | 1.813% |  |
| CN(C)C(=S)SSC(=S)N(C)C [Thiram] | 0.7821% |  |
| N#C/N=C1\SCCN1Cc1ccc(Cl)nc1 [Thiacloprid] | 2.238% |  |
| CCOP(=S)(OCC)Oc1ccc2c(C)c(Cl)c(=O)oc2c1 [Coumaphos] | 0.01959% |  |
| CCN(CC)c1nc(C)cc(OP(=S)(OC)OC)n1 [Pirimiphos-methyl] | -0.1826% |  |
| CCc1ccc(C(=O)NN(C(=O)c2cc(C)cc(C)c2)C(C)(C)C)cc1 [Tebufenozide] | -1.661% |  |
| COC(=O)c1ccccc1S(=O)(=O)NC(=O)N(C)c1nc(C)nc(OC)n1 [Tribenuron-methyl] |  | % Dead cells (vehicle subtracted) (mouse, 24 h, 10 µM): -1.861% |
| N#Cc1cc(Br)c(O)c(Br)c1 | -1.631% |  |
| CCCCOC(=O)c1ccccc1C(=O)OCCCC [Dibutyl phthalate] |  | % Dead cells (vehicle subtracted) (mouse, 24 h, 10 µM): -2.722% |
| OC(c1ccc(Cl)cc1)(c1ccc(Cl)cc1)C(Cl)(Cl)Cl [Dicofol] |  | % Dead cells (vehicle subtracted) (mouse, 24 h, 10 µM): 1.054% |

| Compound | % Dead cells (vehicle subtracted) | other results |
| --- | --- | --- |
| CNC(=O)CSP(=S)(OC)OC [Dimethoate] | -3.6% |  |
| COCC(=O)N(c1c(C)cccc1C)C(C)C(=O)OC (stereo not shown) [Metalaxyl] | 0.5361% |  |
| CNC(=O)/C=C(\C)OP(=O)(OC)OC | -1.862% |  |
| CCOP(=O)(SC(C)CC)N1CCSC1=O (stereo not shown) [Fosthiazate] | -0.4742% |  |
| COc1cc(Cl)c(OC)cc1Cl [Chloroneb] | -0.9422% |  |
| CCOP(=O)(OCC)Oc1cc(C)nc(C(C)C)n1 [Diazoxon] | -0.938% |  |
| COc1cc(OC)nc(Sc2cccc(Cl)c2C(=O)O)n1 [Pyrithiobac-sodium] |  | % Dead cells (vehicle subtracted) (mouse, 24 h, 10 µM): 0.5188% |
| CCSC(=O)N(CC(C)C)CC(C)C [Butylate] |  | % Dead cells (vehicle subtracted) (10 µM chemical, mouse cortical neuron cultures): 1.861% |
| COC(=O)c1ccccc1C(=O)OC [Dimethyl phthalate] | 1.872% |  |
| CCCCSP(=O)(SCCCC)SCCCC [Tribufos] | -0.3794% |  |
| CC(C)[C@H](C(=O)O[C@H](C#N)c1cccc(Oc2ccccc2)c1)c1ccc(Cl)cc1 [Esfenvalerate] | 4.898% |  |
| C/C(=N\C#N)N(C)Cc1ccc(Cl)nc1 [Acetamiprid] | 2.983% |  |
| Nc1c(Cl)c(F)nc(OCC(=O)O)c1Cl [Fluroxypyr] |  | % Dead cells (vehicle subtracted) (mouse, 24 h, 10 µM): -1.905% |
| CC1(C)C(C=C(Cl)Cl)C1C(=O)OCc1cccc(Oc2ccccc2)c1 (stereo not shown) [Permethrin] | -0.7739% |  |
| N#Cc1c[nH]cc1-c1cccc2c1OC(F)(F)O2 [Fludioxonil] | -2.856% |  |
| Cc1ccc(/N=C/N(C)/C=N/c2ccc(C)cc2C)c(C)c1 [Amitraz] | 0.3334% |  |
| CCOC(=O)NC(=S)Nc1ccccc1NC(=S)NC(=O)OCC [Thiophanate] |  | % Dead cells (vehicle subtracted) (mouse, 24 h, 10 µM): -1.666% |
| COc1cccc(C(=O)NN(C(=O)c2cc(C)cc(C)c2)C(C)(C)C)c1C [Methoxyfenozide] | 0.2717% |  |
| Nc1c(Cl)c(Cl)nc(C(=O)O)c1Cl [Picloram] | 3.752% |  |
| COC(=O)C(C)Oc1ccc(Oc2ccc(Cl)cc2Cl)cc1 (stereo not shown) [Diclofop-methyl] | -2.902% |  |
| COP(=O)(NC(C)=O)SC (stereo not shown) [Acephate] | -1.8111% |  |
| O=c1n(Cl)c(=O)n(Cl)c(=O)n1Cl [Symclosene (Trichloro-s-triazinetrione)] | 4.474% |  |
| CC(C)N1C(=O)N(c2ccccc2)CS/C1=N\C(C)(C)C [Buprofezin] |  | % Dead cells (vehicle subtracted) (mouse, 24 h, 10 µM): -1.5902% |
| CCCCCCC(C)OC(=O)COc1nc(F)c(Cl)c(N)c1Cl (stereo not shown) [Fluroxypyr-meptyl] | -1.2099% |  |
| S=C([S-])NCCNC(=S)[S-].[Mn+2] [Maneb] | 6.097% |  |
